# Source: article PMC7497625, “Machine-Vision-Enabled Salt Dissolution Analysis” (Analytical Chemistry, 2020)
# Marks after values point to notes of the source that are not given here.
# How the values were obtained:
# [1] = cited from earlier work
# [2] = Miniaturized shake-flask (SF) experiment in USP buffers with HPLC-UV, pH measurement and XRPD of remaining solids; type: physicochemical
# Description: For NAP, both phosphate and borate buffers were used at pH 8.0. […] At 48, 72, and 96 h the rotation was stopped, pHs were measured, and samples were centrifuged at constant temperature and 21 100g for 15 min prior to sampling of the supernatant. The supernatants were appropriately diluted and analyzed with reverse-phase HPLC-UV. After 96 h, the solids were extracted and analyzed using XRPD. […] Drug concentration in the supernatants was determined using an Agilent High Performance Liquid Chromatography (HPLC) 1260 system (Agilent Technologies, Germany) coupled with a Phenomenex Gemini NX-C18, 3 μm, 100 × 4.6 mm column (Phenomenex, Torrace, CA). The temperature of the column was set to 30 °C. The mobile phase was 0.2% H3PO4:acetonitrile (40:60, v:v for DIC and 50:50, v:v for NAP) with a flow rate of 1 mL/min. The injection volume was 20 μL, and detection was performed at 276 nm for DIC and 254 nm for NAP. Standard solutions of DIC and NAP were prepared in 0.2% H3PO4:acetonitrile (50:50, v:v) and analyzed with HPLC-UV to construct the calibration curve. […] To determine the solid-state form of the initial samples, XRPD diffractograms were recorded with an Aeris diffractometer (Malvern Panalytical B.V., Almelo, The Netherlands) using Cu Kα radiation (λ = 1.540598 Å) and a divergence slit of 0.76 mm. […] Measurements were performed in triplicate with independent samples. Additional measurements using XRPD were performed for the remaining solids after the 96 h miniaturized SF experiments.
# [3] = Machine-vision-based single-particle analysis (SPA) solubility measurement, pH-solubility profile; type: physicochemical
# Description: The SPA measurements were carried out as already previously described by Svanbäck et al. and Štukelj et al.[17],[19],[20] Briefly, the two main components of the SPA method are the flow-through setup and the analysis software. The flow-through setup enables trapping and machine-vision tracking of drug particles under steady flow–sink–conditions. The average measurement time is 5 min. The captured images are then analyzed using custom-made software, which is capable of semiautomatic particle recognition and tracking of the individual particle morphology throughout the measurement. The decrease in size, under sink conditions, according to Noyes and Whitney, is directly proportional to the equilibrium solubility of the compound. In this way, the solubility data from the images is extracted. Depending on the number of particles, the reported solubility values are an average of up to several hundred individual particles. For in-depth description and visuals, readers are directed to the three original papers cited above.
# [4] = 0.05 M USP buffer Borate pH 8.0
# [5] = 0.05 M USP buffer Borate pH 9.0
# [6] = 0.05 M USP buffer Phosphate pH 6.0
# [7] = 0.05 M USP buffer Phosphate pH 7.0
# [8] = 0.05 M USP buffer Phtalate pH 3.0
# [9] = 0.05 M USP buffer Phtalate pH 4.0
# [10] = 0.05 M USP buffer Phtalate pH 5.0
# [11] = starting material free acid, after 96 h
"solid-state form at end of SF experiment (XRPD) ([2]; starting material anhydrous salt, initial pH 6.0 and 8.0)","solid-state form at end of SF experiment (XRPD) ([2]; starting material salt, initial pH 2.0 and 4.0)","pHmax′ SPA (apparent pHmax) ([3]; intersect of the two regions of the SPA pH-solubility profile, started with anhydrous salt)",pHmax ([3]; linear extrapolation of pH-corrected SPA values of free acid to the SF-determined solubility of the salt (Figure 2b / 5b)),"Measured pH of miniaturized SF experiment [2, 4]","Measured pH of miniaturized SF experiment [2, 5]",Measured pH of miniaturized SF experiment ([2]; 0.05 M USP buffer HCl pH 2.0),"Measured pH of miniaturized SF experiment [2, 6]","Measured pH of miniaturized SF experiment [2, 7]","Measured pH of miniaturized SF experiment [2, 8]","Measured pH of miniaturized SF experiment [2, 9]","Measured pH of miniaturized SF experiment [2, 10]",solubility at 5 min ([3]; read-out: S0 SPA (intrinsic solubility)) [µg/mL],"solid-state form at end of SF experiment (XRPD) ([2]; starting material anhydrous salt, pH 8.0, borate and phosphate buffer)","solid-state form at end of SF experiment (XRPD) ([2]; starting material salt, initial pHs 2.0, 4.0 and 6.0)",Measured pH of miniaturized SF experiment ([2]; 0.05 M USP buffer Phosphate pH 8.0),SMILES,pHmax lit. [1],SPA solubility upon disproportionation compared to the free acid ([3]; region below pH 8),"solid-state form at end of SF experiment (XRPD) [2, 11]"
converted into its hydrate form,converted into a free acid form,7.35,7.98,–,–,–,–,–,–,–,–,–,–,–,–,O=C(O)Cc1ccccc1Nc1c(Cl)cccc1Cl [diclofenac sodium],"∼8 ^a^, ^e",higher solubility upon disproportionation,–
–,–,–,–,7.0,7.8,2.0,6.0,6.9,3.00,4.0,4.9,0.6 ± 0.3,–,–,–,"O=C(O)Cc1ccccc1Nc1c(Cl)cccc1Cl [diclofenac, Diclofenac]",–,–,remained in the same form throughout the experiment
–,–,–,–,–,–,–,–,–,–,–,–,–,converted into its hydrate form,converted into a free acid,–,COc1ccc2cc([C@H](C)C(=O)O)ccc2c1 [naproxen sodium],∼8 ^c,–,–
–,–,–,–,6.0,6.8,1.9,5.8,6.6,3.0,4.1,5.0,–,–,–,6.9,"COc1ccc2cc([C@H](C)C(=O)O)ccc2c1 [naproxen, Naproxen]",–,–,the same form remained throughout the experiment
